Assay results published in PMC3894558, “Chemical signatures and new drug targets for gametocytocidal drug development” (Scientific Reports, 2014).
Read-outs that look alike come from different tables or passages of the source.

Columns and labels:
[1] = system: P. falciparum Dd2 gametocytes; assay: alamarBlue gametocyte viability assay, strain Dd2; assay type: cell-based, Plasmodium falciparum
[2] = system: P. falciparum HB3 gametocytes; assay: alamarBlue gametocyte viability assay, strain HB3; assay type: cell-based, Plasmodium falciparum
Method: Briefly, gametocyte cultures were set up at 0.1% parasitemia and on days 9–10 treated with 50 mM N-acetylglucosamine (NAG) to block further asexual growth. Stage III–V gametocytes were isolated by Percoll density gradient centrifugation on day 12 and returned to culture for 24 hrs before being used in the assay[9].
Briefly, 2.5 μl/well incomplete medium was dispensed into each well of 1,536-well plates using the Multidrop Combi followed by 23 nl compound transferring using the NX-TR Pintool (WAKO Scientific Solutions, San Diego, CA). Then, 2.5 μl/well of gametocytes was dispensed with a seeding density of 20,000 cells/well using the Multidrop Combi. The assay plates were incubated for 72 hrs at 37°C with 5% CO2.

[3] = system: P. falciparum 3D7 gametocytes; assay: alamarBlue gametocyte viability assay, strain 3D7; assay type: cell-based, Plasmodium falciparum; conditions: for Max Resp: DMSO set at 0%, 100 nM epoxomicin set at -100%
HepG2 cells = assay: cells; conditions: Homo sapiens; for Emax: HepG2, read-out: % Max response; for IC50: HepG2, read-out: IC50 in HepG2 cells
From the text: Growth medium was made with Dulbecco's Modified Eagle Medium with 10% fetal bovine serum (FBS).

[4] = Plasmodium falciparum, DD2, strain profiling, 11 concentrations, 1:3 dilution, three times, read-out: Dd2-gametocytes IC50
[5] = Plasmodium falciparum, HB3, strain profiling, 11 concentrations, 1:3 dilution, three times, read-out: HB3-gametocytes IC50
[6] = Plasmodium falciparum, 3D7, P. falciparum 3D7 gametocytes, mean of at least 3 independent experiments, read-out: Gametocyte IC50
[7] = Plasmodium falciparum, DD2, read-out: Dd2-gametocytes IC50
[8] = Plasmodium falciparum, 3D7, strain profiling, 11 concentrations, 1:3 dilution, three times, read-out: 3D7-gametocytes IC50
[9] = Malaria Box, stages III-V 3D7 gametocytes
[10] = Malaria Box, stages III-V 3D7 gametocytes, 11 concentrations, 1:3 dilution, read-out: IC50
[11] = Malaria Box, stages III-V 3D7 gametocytes, 11 concentrations, 1:3 dilution

`c1cnc2c(c1)ccc1cccnc12` [1,10-Phenanthroline] gave an IC50 [1, 4] of 1320 nM, an IC50 [2, 5] of 1180 nM and an IC50 ([3]; Plasmodium falciparum, 3D7, read-out: 3D7-gametocytes IC50, strain profiling, 11 concentrations, 1:3 dilution, three times) of 743 nM.
Molecule `CN(C)C/C=C/C(=O)Nc1cc2c(Nc3ccc(F)c(Cl)c3)ncnc2cc1O[C@H]1CCOC1` [Afatinib] has an IC50 [1, 4] of 2960 nM, an IC50 [2, 5] of 4180 nM and an Emax (HepG2 cells) of -100%. It also gave an IC50 (HepG2 cells) of 18700 nM and an IC50 [3, 6] of 935 nM.
`CO[C@H]1/C=C\C=C(/C)C(=O)NC2=CC(=O)C(NCCN(C)C)=C(C[C@@H](C)C[C@H](OC)[C@H](O)[C@@H](C)/C=C(\C)[C@@H]1OC(N)=O)C2=O` [Alvespimycin] was tested, and the IC50 [1, 7] was 94 nM, the IC50 [2, 5] was 235 nM and the Emax (HepG2 cells) was -94%. The IC50 (HepG2 cells) was 118 nM and the IC50 [3, 6] was 74 nM.
`CC(C)C[C@H](NC(=O)[C@H](Cc1ccccc1)NC(=O)c1cnccn1)B(O)O` [Bortezomib] showed an IC50 [1, 4] of 94 nM, an IC50 [2, 5] of 74 nM and an Emax (HepG2 cells) of -82%. The IC50 (HepG2 cells) was 148 nM and the IC50 [3, 6] was 118 nM.
`C#Cc1cccc(Nc2ncnc3cc(OC)c(OCCCCCCC(=O)NO)cc23)c1` [CUDC-101] was tested, and the IC50 [1, 4] was 429 nM, the “fold more potent against HB3 compared to 3D7 gametocytes” value [2] was 5.5 fold and the IC50 [2, 5] was 152 nM. The Emax (HepG2 cells) was -76%, the IC50 (HepG2 cells) was 6790 nM and the IC50 [3, 6] was 833 nM.
With `CNc1ccc2oc(C[C@H]3O[C@@]4(CC[C@H]3C)O[C@H]([C@H](C)C(=O)c3ccc[nH]3)[C@H](C)C[C@H]4C)nc2c1C(=O)O` [Calcimycin] the IC50 [1, 7] was 1660 nM, the IC50 ([2]; Plasmodium falciparum, HB3, read-out: HB3-gametocytes IC50) was 5900 nM and the IC50 [3, 8] was 2640 nM.
`CC(C)C[C@H](NC(=O)[C@H](CCc1ccccc1)NC(=O)CN1CCOCC1)C(=O)N[C@@H](Cc1ccccc1)C(=O)N[C@@H](CC(C)C)C(=O)[C@@]1(C)CO1` [Carfilzomib] gave an IC50 [1, 4] of 2 nM, an IC50 [2, 5] of 3 nM and an Emax (HepG2 cells) of -79%. The IC50 (HepG2 cells) was 1180 nM, the IC50 [3, 6] was 12 nM and the IC50 [3, 8] was 4 nM.
For `Cc1cc(NC2CCCCC2)nc(-n2nc(C)cc2C)n1` [CyPPA], the IC50 ([1]; strain profiling, 11 concentrations, 1:3 dilution, three times, read-out: Dd2-gametocytes IC50) was 590 nM, the IC50 ([2]; strain profiling, 11 concentrations, 1:3 dilution, three times, read-out: HB3-gametocytes IC50) was 743 nM and the IC50 ([3]; strain profiling, 11 concentrations, 1:3 dilution, three times, read-out: 3D7-gametocytes IC50) was 469 nM.
Work on `c1ccc2c(c1)[I+]c1ccccc1-2` [Diphenyleneiodonium] yielded an IC50 [1, 7] of 209 nM, an IC50 [2, 5] of 296 nM and an IC50 [3, 8] of 132 nM.
Work on `[O-][n+]1ccccc1SSc1cccc[n+]1[O-]` [Dipyrithione] yielded an IC50 [1, 7] of 590 nM, an IC50 [2, 5] of 743 nM and an Emax (HepG2 cells) of -93%. The IC50 (HepG2 cells) was 10800 nM and the IC50 [3, 6] was 263 nM.
With `CCN(CC)C(=S)SSC(=S)N(CC)CC` [Disulfiram] the IC50 [1, 4] was 96 nM, the IC50 [2, 5] was 108 nM and the IC50 [3, 8] was 96 nM.
With `COc1cc(C(=O)ON=C(N)Cc2cccc3ccccc23)cc(OC)c1OC` [MMV666687] the “Max Resp” value ([3]; Malaria Box) was -100%, the “Curve Class” value [3, 9] was -2.1 and the IC50 [3, 10] was 14800 nM.
`Cc1cc(C=C2SC(=Nc3ccccc3)N(C3CCCC3)C2=O)c(C)n1-c1ccc(Cl)cc1` [MMV666688] was tested, and the “Max Resp” value ([3]; Malaria Box) was -20%, the “Curve Class” value [3, 9] was 4 and the IC50 [3, 11] was “Inactive”.
In the case of `COc1ccc(Nc2nc(N/N=C/c3ccc(O)cc3)nc(Nc3ccc([N+](=O)[O-])cc3)n2)cc1` [MMV666689], the “Max Resp” value ([3]; Malaria Box) is reported as -64%, the “Curve Class” value [3, 9] is reported as -1.2 and the IC50 [3, 10] is reported as 6620 nM.
With `COc1ccc(C=C2SC(=N)N(c3ccccc3OC)C2=O)cc1` [MMV666691] the “Max Resp” value ([3]; Malaria Box) was -7%, the “Curve Class” value [3, 9] was 4 and the IC50 [3, 11] was “Inactive”.
In the case of `CCCCCCc1cc2cc(-c3csc(C=Cc4ccccc4)n3)c(=O)oc2cc1O` [MMV666692], the “Max Resp” value ([3]; Malaria Box) is reported as -54%, the “Curve Class” value [3, 9] is reported as -2.2 and the IC50 [3, 10] is reported as 29600 nM.
With `COc1cccc(C=Cc2nc(=O)c3ccccc3o2)c1OC` [MMV666693] the “Max Resp” value ([3]; Malaria Box) was 19%, the “Curve Class” value [3, 9] was 4 and the IC50 [3, 11] was “Inactive”.
For `CCOc1ccc(N2C(N)=NC(N)=NC2(C)C)cc1.Cl` [MMV667486], the “Max Resp” value ([3]; Malaria Box) was -4%, the “Curve Class” value [3, 9] was 4 and the IC50 [3, 11] was “Inactive”.
In the case of `CN(C)c1ccc(N2C(N)=NC(N)=NC2(C)C)cc1` [MMV667487], the “Max Resp” value ([3]; Malaria Box) is reported as -4%, the “Curve Class” value [3, 9] is reported as 4 and the IC50 [3, 11] is reported as “Inactive”.
`COc1ccc(CCn2c(=N)c(C(=O)NCc3cccnc3)cc3c(=O)n4cccc(C)c4nc32)cc1` [MMV667488] was tested, and the “Max Resp” value ([3]; Malaria Box) was -32%, the “Curve Class” value [3, 9] was -1.2 and the IC50 [3, 10] was 2640 nM.
